Where two headings read alike, the source gives them in different places.
Tested on: HCMV
Type: cell-based
Protocol: In example herpesvirus PRM assay methods shown herein, cell pellets were lysed in 2% SDS, 100 mM NaCl, 0.5 mM EDTA, 50 mM Tris, pH 8.2, and 50 μg of protein was reduced and alkylated with 25 mM TCEP and 50 mM CAM respectively for 20 min at 70° C. Proteins were then precipitated via methanol chloroform precipitation (Wessel & Flugg, Anal Biochem. 138(1):141-143, 1984), resuspended in 50 mM HEPES, pH 8.2 and digested overnight with trypsin (50:1 protein:enzyme w/w ratio). Digested peptides were desalted by SDB-RPS StageTip as previously described (Lum et al., Cell Syst., 7(6):[…], 2018; Greco et al., Methods Mol Biol 1410:39-63, 2016; Federspiel & Cristea, Methods Mol Biol., 1977:115-143, 2019).
Peptides (1.0 μg on column) were analyzed by LC-MS/MS using a Dionex Ultimate 3000 UHPLC coupled online to an EASYSpray ion source and a Q Exactive HF. Peptides were separated on an EASYSpray C18 column (75 μm×25 cm) heated to 50° C. using a linear gradient of 5% B to 32% B over 60 min at a flow rate of 250 nL/min and were ionized at 1.7 kv. Mobile phase A consisted of 0.1% FA in H2O and mobile phase B consisted of 0.1% FA, 2.9% H2O in ACN.
The PRM method was controlled by a peptide inclusion list with retention time windows of 6 min for selected precursor ions.
The PRM assay was developed and analyzed using the open-source software Skyline (Maclean et al., Bioinformatics 26(7):966-968, 2010). Summed area under the curve of 3-4 transitions per peptide was used for quantitation. Targeted peptides were normalized to host protein loading control peptides. Peptide values for each sample were scaled to the average of each peptide across all runs. The average of multiple peptides was used as the inferred value for the protein measurement when more than one peptide was quantified (Federspiel et al., PLoS Biol. 17(9):e3000437. Doi: 10.1371/journal.pbio.3000437). PRM quantitation data were graphed using the Python Seaborn and Matplotlib libraries.
MRC5 primary human fibroblasts (HFs) (ATCC CCL-171) were used as the model system for HSV-1 and HCMV infections and were cultured in complete growth medium (DMEM supplemented with 10% fetal bovine serum and 1% penicillin-streptomycin antibiotics) at 37° C. and 5% CO2. iSLK.219 cells harboring latent KSHV (a gift from Dr. Britt Glaunsinger, University of California, Berkeley) were grown in complete growth medium supplemented with 500 μg/ml hygromycin (ThermoFisher Scientific, 10687010) at 37° C. and 5% CO2. All cells were used for experiments within a maximum of 10 passages.
Wild type HSV-1 strain 17+ (a gift from Beate Sodeik, Hannover Medical School, Hannover, Germany) was propagated as previously described (Diner et al., 2015). Briefly, PO stocks were generated by electroporating pBAC-HSV-1 into U-2 OS cells. […] In a similar manner, wild type HCMV strain AD169 was produced from BAC electroporation into HFs and working stocks were propagated by infecting HFs at a low level. In both cases, cell-associated virus was released by sonication, combined with supernatant virus, then concentrated by ultracentrifugation (20,000 rpm, 2 hours, 4° C. with SW28 swinging bucket rotor [Beckman Coulter]) over a 10% ficoll (HSV-1) or 20% sorbitol (HCMV) cushion. Virus stock titers were determined by plaque assay for HSV-1 or tissue culture infectious dose (TCID50) for HCMV and infections were performed at a multiplicity of infection (MOI) of 3.
12 hours prior to virus infection or reactivation, cells were treated with either the small molecule drug or DMSO/PBS control at an equivalent volume. […] For infection cycles lasting longer than 24 hours, small molecule drugs were re-added to the cell culture medium every 24 hours. Upon collection, cells were rinsed with PBS, scraped into a microcentrifuge tube, pelleted by centrifugation, and rinsed again with PBS.

SMILES: Nc1c(S(=O)(=O)c2ccccc2)c2nc3ccccc3nc2n1-c1ccc(F)cc1 [CAY10602]
- UL117 (P16770) protein level (timepoint 96, L): 0.3951
- gH (P12824) protein level (timepoint 96, L): 0.2835
- gL (P16832) protein level (timepoint 96, L): 0.2623
- gM (P16733) protein level (timepoint 96, L): 0.2653
- gN (P16795) protein level (timepoint 96, L): 0.3
- IR10 (P16808) protein level (timepoint 96, LL): 0.2057
- IR12 (P16810) protein level (timepoint 96, LL): 0.691
- TRM3 (P16732) protein level (timepoint 96, LL): 0.1638
- TRX1 (P16783) protein level (timepoint 96, LL): 0.107
- TRX2 (P16728) protein level (timepoint 96, LL): 0.1423
- UL24 (P16760) protein level (timepoint 96, LL): 0.2363
- UL40 (P16780) protein level (timepoint 96, LL): 0.5384
- UL47 (P16784) protein level (timepoint 96, LL): 0.2331
- UL49 (P16786) protein level (timepoint 96, LL): 0.2651
- UL69 (P16749) protein level (timepoint 96, LL): 0.3508
- UL70 (P17149) protein level (timepoint 96, LL): 0.6104
- UL83 (P06725) protein level (timepoint 96, LL): 0.1002
- UL132 (P69338) protein level (timepoint 96, LL): 0.23
- US15 (P09718) protein level (timepoint 96, LL): 0.4576
- CVC2 (P16726) protein level (timepoint 120, DE): 0.2864
- DBP (P17147) protein level (timepoint 120, DE): 1.237
- HELI (P16736) protein level (timepoint 120, DE): 0.9924
- IR01 (P09710) protein level (timepoint 120, DE): 0.5584
- NEC1 (P16794) protein level (timepoint 120, DE): 0.2446
- NEC2 (P16791) protein level (timepoint 120, DE): 0.5195
- RIR1 (P16782) protein level (timepoint 120, DE): 0.4577
- TRM1 (P16724) protein level (timepoint 120, DE): 0.5809
- UL4 (P17146) protein level (timepoint 120, DE): 0.3635
- UL26 (P16762) protein level (timepoint 120, DE): 0.7327
- UL32 (P08318) protein level (timepoint 120, DE): 0.3617
- UL34 (P16812) protein level (timepoint 120, DE): 0.476
- UL35 (P16766) protein level (timepoint 120, DE): 0.2648
- UL38 (P16779) protein level (timepoint 120, DE): 0.7917
- UL44 (P16790) protein level (timepoint 120, DE): 0.3691
- UL48 (P16785) protein level (timepoint 120, DE): 0.6239
- UL54 (P08546) protein level (timepoint 120, DE): 1.076
- UL71 (P16823) protein level (timepoint 120, DE): 0.6451
- UL78 (P16751) protein level (timepoint 120, DE): 0.6099
- UL84 (P16727) protein level (timepoint 120, DE): 0.5628
- UL95 (P16801) protein level (timepoint 120, DE): 0.6017
- UL96 (P16787) protein level (timepoint 120, DE): 0.8056
- UL97 (P16788) protein level (timepoint 120, DE): 0.6064
- UL98 (P16789) protein level (timepoint 120, DE): 0.7315
- UL102 (P16827) protein level (timepoint 120, DE): 1.128
- UL104 (P16735) protein level (timepoint 120, DE): 0.5969
- UL112/UL113 (P17151) protein level (timepoint 120, DE): 0.6787
- UL114 (P16769) protein level (timepoint 120, DE): 0.9011
- UL119/UL118 (P16739) protein level (timepoint 120, DE): 0.9064
- UL128 (P16837) protein level (timepoint 120, DE): 0.537
- US8 (P09730) protein level (timepoint 120, DE): 0.7858
- US9 (P09729) protein level (timepoint 120, DE): 0.8529
- US12 (P09721) protein level (timepoint 120, DE): 0.4687
- US13 (P09720) protein level (timepoint 120, DE): 0.889
- US14 (P09719) protein level (timepoint 120, DE): 0.6652
- US18 (P69334) protein level (timepoint 120, DE): 1.01
- US22 (P09722) protein level (timepoint 120, DE): 0.7763
- US23 (P09701) protein level (timepoint 120, DE): 0.7758
- US24 (P09700) protein level (timepoint 120, DE): 0.8183
- US34 (P09709) protein level (timepoint 120, DE): 0.4168
- gB (P06473) protein level (timepoint 120, DE): 0.6582
- IRS1 (P09715) protein level (timepoint 120, IE): 0.8786
- TRS1 (P09695) protein level (timepoint 120, IE): 0.7933
- UL13 (P16755) protein level (timepoint 120, IE): 0.4263
- UL36 (P16767) protein level (timepoint 120, IE): 0.8112
- UL37 (P16778) protein level (timepoint 120, IE): 0.8715
- UL122 (P19893) protein level (timepoint 120, IE): 0.4332
- UL123 (P13202) protein level (timepoint 120, IE): 0.6795
- CVC1 (P16799) protein level (timepoint 120, L): 0.5173
- GO (P16750) protein level (timepoint 120, L): 0.4236
- IR11 (P16809) protein level (timepoint 120, L): 1.205
- MCP (P16729) protein level (timepoint 120, L): 0.4497
- SCP (Q7M6N6) protein level (timepoint 120, L): 0.3169
- TRM2 (P16792) protein level (timepoint 120, L): 0.4883
- UL22A (P16845) protein level (timepoint 120, L): 0.9462
- UL25 (P16761) protein level (timepoint 120, L): 0.5081
- UL29 (P16764) protein level (timepoint 120, L): 0.8148
- UL30 (P16765) protein level (timepoint 120, L): 0.4064
- UL31 (P16848) protein level (timepoint 120, L): 0.5275
- UL43 (P16781) protein level (timepoint 120, L): 0.2294
- UL52 (P16793) protein level (timepoint 120, L): 0.6161
- UL76 (P16725) protein level (timepoint 120, L): 0.366
- UL79 (P16752) protein level (timepoint 120, L): 0.3998
- UL80 (P16753) protein level (timepoint 120, L): 0.5912
- UL82 (P06726) protein level (timepoint 120, L): 0.5561
- UL87 (P16730) protein level (timepoint 120, L): 0.3281
- UL88 (P16731) protein level (timepoint 120, L): 0.6339
- UL94 (P16800) protein level (timepoint 120, L): 0.5803
- UL99 (P13200) protein level (timepoint 120, L): 0.4749
- UL103 (P16734) protein level (timepoint 120, L): 0.5208
- UL117 (P16770) protein level (timepoint 120, L): 0.5442
- gH (P12824) protein level (timepoint 120, L): 0.5849
- gL (P16832) protein level (timepoint 120, L): 0.5768
- gM (P16733) protein level (timepoint 120, L): 0.6508
- gN (P16795) protein level (timepoint 120, L): 0.6429
- DUT (P16824) protein level (timepoint 120, LL): 0.5447
- IR10 (P16808) protein level (timepoint 120, LL): 0.4495
- IR12 (P16810) protein level (timepoint 120, LL): 0.797
- TRM3 (P16732) protein level (timepoint 120, LL): 0.383
- TRX1 (P16783) protein level (timepoint 120, LL): 0.3398
- TRX2 (P16728) protein level (timepoint 120, LL): 0.4401
- UL24 (P16760) protein level (timepoint 120, LL): 0.5907
- UL40 (P16780) protein level (timepoint 120, LL): 0.5612
- UL47 (P16784) protein level (timepoint 120, LL): 0.5287
- UL49 (P16786) protein level (timepoint 120, LL): 0.5619
- UL69 (P16749) protein level (timepoint 120, LL): 0.6101
- UL70 (P17149) protein level (timepoint 120, LL): 0.846
- UL83 (P06725) protein level (timepoint 120, LL): 0.4091
- UL132 (P69338) protein level (timepoint 120, LL): 0.4011
- US15 (P09718) protein level (timepoint 120, LL): 0.6187

From patent US20240027453A1, “METHOD FOR DETECTION AND QUANTITATIVE MONITORING OF INFECTIONS WITH HERPESVIRUSES” (The Trustees of Princeton University, priority 2020, published 2024)
